In PubChem BioAssay (NCI):
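Compound exposure: 48 hours, 5 concentrations, 96-well plates. TGI is the concentration that stops growth completely.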

Legend:
Assay in all cases: NCI tumour cell line growth inhibition, 48 h
786-0 renal = tested on: 786-0 renal
A498 renal = tested on: A498 renal
A549 NSCLC = tested on: A549 NSCLC
ACHN renal = tested on: ACHN renal
CAKI-1 renal = tested on: CAKI-1 renal
CCRF-CEM leukemia = tested on: CCRF-CEM leukemia
COLO 205 colon = tested on: COLO 205 colon
DLD-1 colon = tested on: DLD-1 colon
DMS 273 small cell lung = tested on: DMS 273 small cell lung
EKVX NSCLC = tested on: EKVX NSCLC
HCT-15 colon = tested on: HCT-15 colon
HL-60(TB) leukemia = tested on: HL-60(TB) leukemia
HOP-18 NSCLC = tested on: HOP-18 NSCLC
HOP-92 NSCLC = tested on: HOP-92 NSCLC
HT29 colon = tested on: HT29 colon
IGROV1 ovarian = tested on: IGROV1 ovarian
KM12 colon = tested on: KM12 colon
KM20L2 colon = tested on: KM20L2 colon
LOX IMVI melanoma = tested on: LOX IMVI melanoma
LXFL 529 NSCLC = tested on: LXFL 529 NSCLC
M14 melanoma = tested on: M14 melanoma
M19-MEL melanoma = tested on: M19-MEL melanoma
MALME-3M melanoma = tested on: MALME-3M melanoma
MOLT-4 leukemia = tested on: MOLT-4 leukemia
NCI-H226 lung = tested on: NCI-H226 lung
NCI-H23 lung = tested on: NCI-H23 lung
NCI-H460 lung = tested on: NCI-H460 lung
NCI-H522 lung = tested on: NCI-H522 lung
OVCAR-3 ovarian = tested on: OVCAR-3 ovarian
OVCAR-4 ovarian = tested on: OVCAR-4 ovarian
OVCAR-5 ovarian = tested on: OVCAR-5 ovarian
OVCAR-8 ovarian = tested on: OVCAR-8 ovarian
RPMI-8226 leukemia = tested on: RPMI-8226 leukemia
RXF 393 renal = tested on: RXF 393 renal
RXF-631 renal = tested on: RXF-631 renal
SF-268 CNS = tested on: SF-268 CNS
SF-295 CNS = tested on: SF-295 CNS
SF-539 CNS = tested on: SF-539 CNS
SK-MEL-2 melanoma = tested on: SK-MEL-2 melanoma
SK-MEL-28 melanoma = tested on: SK-MEL-28 melanoma
SK-MEL-5 melanoma = tested on: SK-MEL-5 melanoma
SK-OV-3 ovarian = tested on: SK-OV-3 ovarian
SN12C renal = tested on: SN12C renal
SNB-19 CNS = tested on: SNB-19 CNS
SNB-75 CNS = tested on: SNB-75 CNS
SW-620 colon = tested on: SW-620 colon
TK-10 renal = tested on: TK-10 renal
U251 CNS = tested on: U251 CNS
UACC-257 melanoma = tested on: UACC-257 melanoma
UACC-62 melanoma = tested on: UACC-62 melanoma
UO-31 renal = tested on: UO-31 renal
XF 498 CNS = tested on: XF 498 CNS
DMS 114 small cell lung = tested on: DMS 114 small cell lung
HCC-2998 colon = tested on: HCC-2998 colon
HCT-116 colon = tested on: HCT-116 colon
HOP-62 NSCLC = tested on: HOP-62 NSCLC
K-562 leukemia = tested on: K-562 leukemia
SNB-78 CNS = tested on: SNB-78 CNS
SR leukemia = tested on: SR leukemia

Measured: TGI

O=C(O)CN(c1ccccc1)S(=O)(=O)c1ccccc1[N+](=O)[O-]
not listed: DMS 114 small cell lung | HCC-2998 colon | HCT-116 colon | HOP-62 NSCLC | K-562 leukemia | SNB-78 CNS | SR leukemia
> 100 µM: all other assays above

CC(C)(C)OC(=O)Cc1ccc2c(ccn2Cc2ccccc2)c1
36.4 µM: HT29 colon
77.2 µM: KM20L2 colon
not listed: RPMI-8226 leukemia | XF 498 CNS | SR leukemia
> 100 µM: all other assays above

COc1cc(OC(=O)c2c(O)cc(O)c(O)c2C)cc(C)c1C(=O)Oc1cc(C)c(C(=O)O)c(O)c1
not listed: SNB-19 CNS
> 100 µM: all other assays above
